Assay [1] concerns the target T1, Sse1 (Saccharomyces cerevisiae, UniProt P32589).
T1 sequence (P32589 2-693): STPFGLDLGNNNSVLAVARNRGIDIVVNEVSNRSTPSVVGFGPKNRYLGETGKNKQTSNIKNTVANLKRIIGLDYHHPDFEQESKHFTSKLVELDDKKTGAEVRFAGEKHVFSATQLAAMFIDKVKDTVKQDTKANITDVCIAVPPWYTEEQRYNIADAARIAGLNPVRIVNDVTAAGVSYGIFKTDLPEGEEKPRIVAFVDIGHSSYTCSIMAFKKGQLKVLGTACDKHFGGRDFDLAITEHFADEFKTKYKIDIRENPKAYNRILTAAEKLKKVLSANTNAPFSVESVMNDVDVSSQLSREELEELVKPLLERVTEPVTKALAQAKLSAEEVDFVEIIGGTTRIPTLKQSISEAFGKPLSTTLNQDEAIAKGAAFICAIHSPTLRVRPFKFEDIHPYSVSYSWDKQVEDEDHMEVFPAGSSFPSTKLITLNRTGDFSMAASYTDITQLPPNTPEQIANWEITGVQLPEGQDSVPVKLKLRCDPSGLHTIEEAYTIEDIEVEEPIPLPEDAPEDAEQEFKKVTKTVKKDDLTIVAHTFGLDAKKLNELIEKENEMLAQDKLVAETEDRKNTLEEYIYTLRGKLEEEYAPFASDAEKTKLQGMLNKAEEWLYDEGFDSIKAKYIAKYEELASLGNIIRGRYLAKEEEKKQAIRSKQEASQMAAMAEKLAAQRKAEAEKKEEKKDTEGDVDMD
The assay is described as follows: fluorescence polarization/anisotropy, saturation binding one-site fit. On the technique in general: Polarisation of emitted light reports the rotation of a fluorescent probe.

Assay [2] deals with T2, Sse1 (Saccharomyces cerevisiae, UniProt P32589, F439L/L433A/M441A/N434P).
T2 sequence (P32589 2-693 L433A/N434P/F439L/M441A): T1 sequence (P32589 2-693) with L432A, N433P, F438L, M440A
The description is as above.

One molecule from article PMC5509420 (Molecular Biology of the Cell, 2017) can be followed below.

Substitutions are numbered along the chain they refer to.

Take `O=C(NCCCCCCNc1ncnc2c1ncn2[C@@H]1O[C@H](COP(=O)(O)OP(=O)(O)OP(=O)(O)O)[C@@H](O)[C@H]1O)c1ccc2c(c1)C(=O)OC21c2ccc(O)cc2Oc2cc(O)ccc21` [N^6-(6-amino)hexyl-ATP-5-FAM]: the Kd at Sse1 [1] was 8.6 ± 1.4 µM; at Sse1 [2] it was 12.1 ± 1.9 µM.

The Kd is the equilibrium constant for the complex coming apart.
